Source: patent US10596145B2, “Heterocyclic flavone derivatives, compositions, and methods related thereto” (Emory University, priority 2012, dated 2020)
“Also recorded” adds a separate entry of the source.

Columns and labels:
TrkB = molecular target: T1, TrkB (Rattus norvegicus, UniProt Q63604); assay: TrkB activation in primary cortical neurons (immunoblotting); type: cell-based; conditions: 500 nM, 15 min
T1 construct: endogenous in cells; host or cells: primary cortical neurons from E17 rat embryos
Procedure: Primary cortical cultures from E17 rat embryos were treated with 500 nM of various synthetic flavone derivatives for 15 min. The cell lysates (20 μg) were analyzed by the immunoblotting.
Rat primary neurons were treated with 500 nM various indicated compounds from 15 min. The neuronal lysates ([…]) were analyzed with various antibodies.
500 nM of different synthetic compounds were added to DIV 7 neurons for 15 min. The cell lysates were analyzed by immunoblotting with indicated p-Akt 473 antibodies.
Replacing the 3′-dimethylamino group or 4′-morpholino group was tested for TrkB agonistic activity. To compare the TrkB activation by these compounds, primary cortical cultures were prepared and treated them with 500 nM of various compounds for 15 min and collected the cell lysates. […] The p-Akt ELISA analysis results were similar to the TrkB activation pattern (FIG. 2B, lower panel).

C57BL/6J mice [1] = assay: Tail suspension test; type: in vivo, mouse; conditions: 2.5 mg/kg oral, 21 days
Procedure: The drug-treated mice were subjected tail suspension assay. […] Data are presented as mean±SEM.
One suspends mice by the tail to a horizontal ring stand bar 30 cm above the floor using adhesive tape for 6 minutes and videotaped. Latency to immobility and time spent immobile will be scored for each mouse. Following the test, mice will be returned to their home cage. Immobility scores were compared by unpaired t test.

C57BL/6J mice [2] = assay: Locomotor activity assay; type: in vivo, mouse; conditions: 2.5 mg/kg oral, 3 weeks
Procedure: The above drug-treated mice were subjected locomotor activity at day 22. […] Data are presented as mean±SEM.
Locomotor activity was assessed using an automated system (San Diego Instruments, La Jolla, Calif., USA) with photobeams that recorded ambulations (consecutive beam breaks). Drug-treated mice were placed in the locomotor chambers, and their activity was recorded for 2 h with 30 min interval.

[3] = Reactive metabolic screening assay; type: in vitro ADME; conditions: liver microsomal lysates
Excerpt: To explore these compounds' in vitro ADMET profiles, we conducted numerous in vitro assays.

[4] = In vivo pharmacokinetic studies in mice; parameters: species or system mouse; conditions: in vivo
Procedure: For compound a, the standard dosage of 1 mg/kg via i.v. injection and 5 mg/kg for P.O. route was employed. […] Presumably, the dosage is too low for the in vivo PK assay. Thus, the doses of the tested compound o were increased. […] Moreover, the bioavailability is around 2% for compound o at a 10 mg/kg dosage.
Twenty to thirty grams mice within the age of 6-8 weeks old were administrated with the indicated compounds i. v. or orally. At different time points (3, 10, 30, 60, 120, 240, 360 and 480 min), blood aliquots (300-400 μl) were collected in tubes coated with lithium heparin, mixed gently, then kept on ice and centrifuged at 2500×g for 15 min at 4° C., within 1 h of collection. The plasma was then harvested and kept frozen at −20° C. until further processing. For each time point, 3 mice/group were employed. The plasma samples were analyzed by HPLC.

T1 sequence (Q63604 32-821): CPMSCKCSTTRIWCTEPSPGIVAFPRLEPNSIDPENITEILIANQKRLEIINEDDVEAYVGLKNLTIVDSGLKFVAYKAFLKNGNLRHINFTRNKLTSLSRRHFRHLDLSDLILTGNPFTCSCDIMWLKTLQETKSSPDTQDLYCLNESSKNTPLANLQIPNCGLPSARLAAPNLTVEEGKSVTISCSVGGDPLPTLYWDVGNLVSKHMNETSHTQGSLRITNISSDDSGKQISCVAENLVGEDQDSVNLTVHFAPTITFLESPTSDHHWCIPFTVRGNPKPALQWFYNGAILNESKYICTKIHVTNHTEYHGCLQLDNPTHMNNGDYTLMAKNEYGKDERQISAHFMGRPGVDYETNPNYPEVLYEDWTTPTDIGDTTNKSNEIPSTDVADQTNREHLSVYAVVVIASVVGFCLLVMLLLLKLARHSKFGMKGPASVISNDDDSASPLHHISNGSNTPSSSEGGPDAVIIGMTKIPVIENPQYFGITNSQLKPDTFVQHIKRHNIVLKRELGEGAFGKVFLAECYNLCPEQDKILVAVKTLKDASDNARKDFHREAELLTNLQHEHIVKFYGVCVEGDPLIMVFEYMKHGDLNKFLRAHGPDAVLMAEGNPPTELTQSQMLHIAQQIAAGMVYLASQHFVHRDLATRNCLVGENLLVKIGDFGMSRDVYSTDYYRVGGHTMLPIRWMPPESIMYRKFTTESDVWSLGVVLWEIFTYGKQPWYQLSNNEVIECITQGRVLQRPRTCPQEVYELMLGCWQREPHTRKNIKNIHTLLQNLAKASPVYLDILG

## Cc1nc2ccc3c(=O)cc(-c4ccc(N5CCCC5)cc4)oc3c2[nH]1 [compound o, 2-methyl-8-(4-(pyrrolidin-1-yl)phenyl)chromeno[7,8-d]imidazol-6(1H)-one]
TrkB
  TrkB activation (p-TrkB immunoblotting): higher agonistic activity than compound m
TrkB; listed as 4′-pyrrolidino-7,8-methyl-imidazole-flavone
  TrkB activation (p-TrkB immunoblotting): triggers TrkB activation in primary neurons
C57BL/6J mice [1]
  immobility in tail suspension test: active in both FST and TST depression behavioral assays; also recorded: significantly reduced the immobility versus vehicle control
C57BL/6J mice [2]
  locomotor activity: neither compound o nor p altered the motion activity
[3]
  reactive metabolite / adduct formation: quite stable in vitro
[4]; C57BL/6, mouse, 3 mg/kg
  half-life: ~1.72 h
[4]; C57BL/6, mouse, po, 10 mg/kg
  oral bioavailability: 2%
[4]; mouse, 3 mg/kg
  AUC(0-t): ~312 ng·h/mL
[4]; mouse, po, 10 mg/kg
  bioavailability: ~2%
